According to patent publication EP1330254B1, “TREATMENT OF CANCERS BY APLIDINE IN CONJUNCTION WITH CARNITINE OR ACETYLCARNITINE” (priority 2000, dated 2002):
Read-outs that look alike come from different tables or passages of the source. Starred links: 1 amine or outer side, 2 acyl side, 3 side chain; linkers in the order of their positions; H or OH if unused. Positions of bridges follow the written chain, without caps; N, C: chain ends. Non-standard residues stand in square brackets, D forms with d. Residues, ends and D or L forms follow the SMILES beside them. *: point of attachment. X1 = CC[C@H](C)[C@@H](N[*:1])[C@@H](O)CC(=O)O[C@H](C(=O)[C@H](C)C(=O)[*:2])C(C)C; NMeY = CN[C@@H](Cc1ccc(O)cc1)C(=O)O; dNMeL = CN[C@H](CC(C)C)C(=O)O; Pyruvoyl = CC(=O)C(=O)*

Columns and labels:
[1] = L-carnitine as myoprotector in aplidine patients (study APL-A-003-98); assay type: in vivo, human
Protocol: More generally, the invention involves the use of a muscle protector in conjunction with aplidine therapy. We have found in particular that carnitine is beneficial in treating myotoxicity that is associated with chemotherapy with the experimental drug aplidine. […] When L-carnitine 4.5 g/day was added to the therapy (at doses of 1.5 g three times daily), or […] (at doses of […] 3 times daily) patients were able to tolerate doses of aplidine up to 6000 mcg/m 2 every second week. […] Therefore, muscle protectors such as L-carnitine is a useful myoprotector for patients being treated with aplidine or an aplidine analogue.
L-carnitine at a dose of 1.5 grams 3 times per day or 0.033 g/kg 3 times per day was started in all patients of study APL-A-003-98.
The dose may be decreased to manage the above effects.

[2] = tested on: lewis lung carcinomas; conditions: cited from earlier work
[3] = Phase I dosing regimes with and without carnitine (MTD, DLT, RD); assay type: in vivo, human; parameters: recommended dose, RD: unit not given here
From the text: The Recommended Dose (RD) is the highest dose which can be safely administered to a patient producing tolerable, manageable and reversibly toxicity according to the Common Toxicity Criteria established by the National Cancer Institute, (USA) with no more than 2 out of 6 patients presenting any dose limiting toxicities (DLT). Guidelines for cancer therapy frequently call for administration of chemotherapeutic agents at the highest safe dose at which toxicity is manageable in order to achieve maximum efficacy (DeVita, V.T. Jr., Hellman, S. and Rosenberg, S.A., Cancer: Principles and Practice of Oncology, 3rd ed., 1989, Lipincott, Philadelphia).
DLTs for aplidine using this method of treatment were determined in clinical studies. These studies established a recommended dose level for differing kinds of dosing protocols.

[4] = Phase I study, 24h continuous infusion every other week: toxicities; assay type: in vivo, human
Protocol: (§1) A phase I and pharmacokinetic study of aplidine, given as a 24h continuous infusion every other week in patients with solid tumours and non-Hodgkin lymphoma
Characterisation of Muscular Toxicity (DLT)

[5] = stability of aplidine solution and lyophilised formulation; assay type: physicochemical; conditions: solubilised aplidine, heat and light stress testing conditions
Protocol: In a currently preferred embodiment freeze-drying was performed from a 500 mg/mL solution of aplidine in 40% (v/v) tert-butanol in Water for Injection (WfI) containing 25 mg/mL D-mannitol as bulking agent.

[6] = tested on: CT-1; conditions: CT-1 epithelial-like cell line; cited from earlier work
[7] = target: T1, ornithine decarboxylase (Homo sapiens, UniProt P11926); conditions: all three cell lines CT-1, CT-2, HT-29; cited from earlier work
T1 construct: endogenous in cells; host or cells: CT-1, CT-2 and HT-29 colon cell lines
T1 sequence (P11926 whole entry): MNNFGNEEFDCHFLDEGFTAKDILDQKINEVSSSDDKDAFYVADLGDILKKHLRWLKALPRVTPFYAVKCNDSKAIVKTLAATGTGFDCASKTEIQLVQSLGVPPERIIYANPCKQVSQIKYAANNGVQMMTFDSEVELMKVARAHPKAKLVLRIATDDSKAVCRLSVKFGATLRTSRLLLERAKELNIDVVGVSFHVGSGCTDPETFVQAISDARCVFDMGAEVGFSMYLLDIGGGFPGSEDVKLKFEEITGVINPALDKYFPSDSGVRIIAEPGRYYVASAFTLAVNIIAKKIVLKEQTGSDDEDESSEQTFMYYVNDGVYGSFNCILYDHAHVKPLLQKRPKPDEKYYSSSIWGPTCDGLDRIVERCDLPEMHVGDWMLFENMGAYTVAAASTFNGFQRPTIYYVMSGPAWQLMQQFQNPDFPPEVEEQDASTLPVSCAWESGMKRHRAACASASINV

[8] = tested on: gastric tumours; conditions: 1.25 mg/kg; cited from earlier work
[9] = tested on: MDA-MB231; conditions: aplidine 50 nmol/L; cited from earlier work
[10] = tested on: Non-small cell lung cancer, breast cancer and melanoma cell lines; conditions: continuous exposure; cited from earlier work
[11] = tested on: gene (FLT1) encoding the receptor of the Vascular Endothelial Growth Factor (VEGF); test: inhibition of gene expression; assay type: cell-based
[12] = tested on: P388 leukaemia; conditions: mice; cited from earlier work
[13] = tested on: VEGF protein; test: VEGF production by tumour cells; assay type: cell-based
[14] = tested on: HT-29; conditions: HT-29 human colon cancer cell line; cited from earlier work
[15] = tested on: CT-2; conditions: CT-2 epithelial-like cell line; cited from earlier work
[16] = tested on: MCF-7; conditions: aplidine 50 nmol/L; cited from earlier work
[17] = Phase I study, 24h continuous infusion every other week: pharmacokinetics; assay type: in vivo, human; conditions: for half-life: human, iv
Protocol: as §1

[18] = tested on: human cancer xenografts; conditions: cited from earlier work
[19] = tested on: B16 melanoma; conditions: mice; cited from earlier work
[20] = Phase I study, 24h continuous infusion every other week: toxicities; assay type: in vivo, human; conditions: Pat #27, medullary thyroid carcinoma, 6000 µg/m^2 weekly
[21] = tested on: human bladder cancer; test: bladder cancer animal models; assay type: in vivo
[22] = Phase I studies: features of aplidine myotoxicity; assay type: in vivo, human
From the text: The presentation is variable among patients. Mild cases have muscle cramps (at doses from 3200 mcg/m2 every 2 weeks), while in more severe cases the symptoms are associated to reversible increases in creatin-kinase (CK) reaching up to grade 3. In the dose-limiting cases there is weakness of proximal distribution. The effect has a delayed onset, appearing after 3 to 8 (median 4) infusions of the drug.

[23] = tested on: cell cycle; conditions: flow cytometric analysis; cited from earlier work
[24] = tested on: solid tumours and non-Hodgkin lymphoma; test: Phase I study, 24h continuous infusion every other week: antitumour activity; assay type: in vivo, human; conditions: patients
Protocol: as §1

[25] = tested on: prostate tumour; conditions: 1.25 mg/kg, prostate tumour growth inhibition; cited from earlier work
[26] = tested on: MDA-MB231 and MCF-7; conditions: treated breast cancer cells; cited from earlier work
[27] = tested on: panel of 25 human tumor cell lines; test: tumor protection by L-carnitine, cell line panel; assay type: cell-based; conditions: initial results
Protocol: The possibility of tumor protection by L-carnitine was evaluated using a panel of 25 human tumor cell lines.

[28] = 24 hour infusion every 2 weeks, L-carnitine daily
[29] = weekly 1 hour infusion for 3 weeks, 1 week rest
[30] = weekly 24 hour infusion for 3 weeks, 1 week rest
[31] = 200 mcg/m^2/2wks, patients affected of 3
[32] = 400 mcg/m^2/2wks, patients affected of 3
[33] = 800 mcg/m^2/2wks, patients affected of 3
[34] = 1600 mcg/m^2/2wks, patients affected of 6
[35] = 3200 mcg/m^2/2wks, patients affected of 3
[36] = 4000 mcg/m^2/2wks, patients affected of 3
[37] = 5000 mcg/m^2/2wks, patients affected of 3
[38] = 6000 mcg/m^2/2wks, patients affected of 12
[39] = 7000 mcg/m^2/2wks, patients affected of 7
[40] = L-carnitine at the doses used in this study

CC[C@H](C)[C@H]1NC(=O)[C@@H](NC(=O)[C@@H](CC(C)C)N(C)C(=O)[C@@H]2CCCN2C(=O)C(C)=O)[C@@H](C)OC(=O)[C@H](Cc2ccc(OC)cc2)N(C)C(=O)[C@@H]2CCCN2C(=O)[C@H](CC(C)C)NC(=O)[C@@H](C)C(=O)[C@H](C(C)C)OC(=O)C[C@@H]1O [aplidine, Dehydrodidemnin B] (Pyruvoyl-P[dNMeL]T[X1]LP[NMeY](Me); ester 3-C)
doses of aplidine patients were able to tolerate ([1]; every second week, 24-hour infusion, with L-carnitine 4.5 g/day or 0.1mg/kg): up to 6000 mcg/m 2 | activity in SC implanted lewis lung carcinomas [2]: active | dose-limiting toxicity ([3]; 1-hour infusion for 5 consecutive days every 3 weeks): Muscular/long lasting emesis | dose-limiting toxicity ([3]; 24 hour infusion every 2 weeks): Muscular | recommended dose, RD ([3]; 24 hour infusion every 2 weeks): 5000 | dose-limiting toxicity [3, 28]: Flu-like syndrome | recommended dose, RD [3, 28]: 7000 | dose-limiting toxicity [3, 29]: Muscular | recommended dose, RD [3, 29]: 3250 | dose-limiting toxicity [3, 30]: Muscular/ hepatic | recommended dose, RD [3, 30]: 3750 | RD ([3]; with L-carnitine 0.1 g/kg /day, for Phase II studies): 7 mg/m^2 | muscle biopsies, E/M ([4]; 2 patients): partial disappearance of thick filaments of myosin | CPK elevations ([4]; 3 patients (5000 and 6000 µg/m^2), CPK MM increase): minor elevations of CPKs (≥G2) | Nausea/vomiting G2 [4, 31]: 2 | Transaminitis G2 [4, 31]: 1 | Asthenia G2 [4, 32]: 2 | Hypertension G2 [4, 32]: 1 | Nausea/vomiting G2 [4, 32]: 1 | Flushing G1 [4, 33]: 1 | Muscle cramps G1+G2 [4, 33]: 2 | Asthenia G2 [4, 34]: 2 | Asthenia G3 [4, 34]: 1 | Muscle cramps G1+G2 [4, 34]: 1 | Nausea/vomiting G2 [4, 34]: 4 | Transaminitis G3 [4, 34]: (1) | Asthenia G2 [4, 35]: 1 | Flushing G1 [4, 35]: 1 | Muscle cramps G1+G2 [4, 35]: 2 | Muscle pain G2 [4, 35]: (1) | Nausea/vomiting G3 [4, 35]: (1) | Asthenia G2 [4, 36]: 1 | Flushing G1 [4, 36]: 1 | Muscle cramps G1+G2 [4, 36]: 2 | Muscle pain G1 [4, 36]: 2 | Nausea/vomiting G2 [4, 36]: 2 | Pain central catheter G2 [4, 36]: 2 | Asthenia G3 [4, 37]: (1) | CPK elevation G3 [4, 37]: (1) [1] | CPK elevation G4 [4, 37]: (1) [1] | Muscle cramps G1+G2 [4, 37]: 2 | Muscle pain G1 [4, 37]: 1 | Muscle weakness G1 [4, 37]: 1 | Nausea/vomiting G2 [4, 37]: 1 | Transaminitis G2 [4, 37]: 1 | dose limiting toxicity (drug induced muscular changes) ([4]; 6000 mcg/m^2): 1/9 | Asthenia G2 [4, 38]: 6 | CPK elevation G2 [4, 38]: 1(1) | CPK elevation G3 [4, 38]: 1(1) | Muscle cramps G1+G2 [4, 38]: 1 | Muscle pain G1 [4, 38]: 1 | Muscle pain G2 [4, 38]: 2 | Muscle weakness G1 [4, 38]: 1(1) | Muscle weakness G2 [4, 38]: 1(1) | Nausea/vomiting G2 [4, 38]: 2 | Asthenia G2 [4, 39]: 2 | CPK elevation G2 [4, 39]: 1 | Flushing G1 [4, 39]: 1 | Muscle pain G1 [4, 39]: 1 | Nausea/vomiting G2 [4, 39]: 1 | Neutrophenia G4 [4, 39]: 1 | Transaminitis G2 [4, 39]: 1 | toxicity recovered after treatment discontinuation ([4]; Pat #27, 6000 µg/m^2): ≤ 3 weeks | degradation [5]: substantial degradation | cytotoxic activity [6]: dose-dependent cytotoxic activity | ornithine decarboxylase activity [7]: decreased | T/C [8]: 14% | inhibited the growth [9]: 17% | concentrations at which cell lines were sensitive [10]: >= 0.001 micromol/L | expression of the gene (FLT1) [11]: inhibits expression | activity against implanted tumour [12]: active | optimal dose [12]: 160 micrograms/kg | production of the VEGF protein [13]: severely inhibit production | cytotoxic activity [14]: dose-dependent cytotoxic activity | cytotoxic activity [15]: dose-dependent cytotoxic activity | inhibited the growth [16]: 47% | half-life ([17]; in vivo, the 3 patients with clear muscular toxicity, read-out: t ½): > 44 h | half-life ([17]; plasma, preliminary compartmental analysis, 24 h infusion, read-out: median half-life, longer terminal phase (converted)): 25.8 h | half-life ([17]; plasma, preliminary compartmental analysis, first-order 2-compartment model, read-out: median half-life, rapid initial phase (converted)): 0.64 h | half-life ([17]; plasma, quartiles 15.7-35.0, read-out: t ½, median (converted)): 23.8 h | PK profile ([17]; within the constraints of the low sample size): dose-linear | treated/control (T/C) tumour ratio ([18]; 2.1 mg/kg, near complete remissions in some animals): 9% | maximum tolerated dose ([18]; mice bearing human cancer xenografts): 2.1 mg/kg | activity against implanted tumour [19]: active | optimal dose [19]: 160 micrograms/kg | muscular toxicity (DLT) [20]: symptomatic G3 CPK with G2 muscular pain | activity on human bladder cancer [21]: exceedingly high activity | delayed onset of myotoxicity, infusions of the drug, median ([22]; median): 4 infusions | reversible increases in creatin-kinase (CK) ([22]; more severe cases): ≤ 3 grade | light microscopy of muscle ([22]; most biopsied patients): just minimal necrosis or no changes at all | cell cycle perturbations [23]: did not induce any apparent cell cycle periubations | antitumour activity [24]: noted in patients with NHL and renal carcinoma | T/C [25]: 25% | spermidine and spermine [26]: significant increase

C[N+](C)(C)C[C@H](O)CC(=O)[O-] [L-carnitine]
outcome in patients with prior skeletal muscle toxicity ([1]; 4 patients continuing aplidine, L-carnitine 1.5 grams 3 times per day or 0.033 g/kg 3 times per day): no skeletal muscle symptoms and just transient grade 1 CK increases | outcome in patients on L-carnitine prophylaxis from the beginning ([1]; 11 patients): just an asymptomatic G1 increase in CK | only toxicity reported [1, 40]: grade 1 abdominal discornfort and diarrhea | tolerability [1, 40]: well tolerated | increase of aplidine MTD ([1]; L-carnitine prophylaxis, 24 h every other week infusion study): 33% | outcome after L-carnitine at reduced doses ([1]; two patients, grade 3 with weakness and grade 1 with asthenia): symptomatic increases in CK | effect on the antitumor activity of aplidine [27]: lack of effect
